Measured values reported in PubChem BioAssay (NCI).
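Test compounds were applied to cells in 96-well plates for 48 hours at 5 doses. Abbreviation: GI50, concentration required for 50% inhibition of growth. At the TGI there is no net growth.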 Where a SMILES comes first, the peptide text is derived from it. Bridges are numbered along the chain shown (N, C = ends). [ ]: non-standard residue; d: D form. ξ: configuration not given here. ξThr(3R) = C[C@@H](O)C(N)C(=O)O; S5 = C=CCCC[C@](C)(N)C(=O)O

Tests used:
Experiment in all cases: growth of human tumour cells (NCI), 48 h
SF-268 CNS = system: SF-268 CNS
SNB-75 CNS = system: SNB-75 CNS
ACHN renal = system: ACHN renal
M14 melanoma = system: M14 melanoma
SNB-19 CNS = system: SNB-19 CNS
OVCAR-4 ovarian = system: OVCAR-4 ovarian
DU-145 prostate = system: DU-145 prostate
TK-10 renal = system: TK-10 renal
UACC-62 melanoma = system: UACC-62 melanoma
MDA-MB-435 = system: MDA-MB-435
HL-60(TB) leukemia = system: HL-60(TB) leukemia
MCF7 breast = system: MCF7 breast
SK-MEL-5 melanoma = system: SK-MEL-5 melanoma
OVCAR-5 ovarian = system: OVCAR-5 ovarian
UO-31 renal = system: UO-31 renal
EKVX NSCLC = system: EKVX NSCLC
NCI-H522 lung = system: NCI-H522 lung
NCI-H23 lung = system: NCI-H23 lung
HT29 colon = system: HT29 colon
SK-MEL-2 melanoma = system: SK-MEL-2 melanoma
CAKI-1 renal = system: CAKI-1 renal
SF-295 CNS = system: SF-295 CNS
U251 CNS = system: U251 CNS
OVCAR-8 ovarian = system: OVCAR-8 ovarian
SN12C renal = system: SN12C renal
OVCAR-3 ovarian = system: OVCAR-3 ovarian
RPMI-8226 leukemia = system: RPMI-8226 leukemia
HOP-92 NSCLC = system: HOP-92 NSCLC
KM12 colon = system: KM12 colon
SK-MEL-28 melanoma = system: SK-MEL-28 melanoma
SF-539 CNS = system: SF-539 CNS
NCI-H226 lung = system: NCI-H226 lung
NCI/ADR-RES ovarian = system: NCI/ADR-RES ovarian
K-562 leukemia = system: K-562 leukemia
NCI-H460 lung = system: NCI-H460 lung
RXF 393 renal = system: RXF 393 renal
COLO 205 colon = system: COLO 205 colon
LOX IMVI melanoma = system: LOX IMVI melanoma
HOP-62 NSCLC = system: HOP-62 NSCLC
A498 renal = system: A498 renal
SK-OV-3 ovarian = system: SK-OV-3 ovarian
HCC-2998 colon = system: HCC-2998 colon
T-47D breast = system: T-47D breast
CCRF-CEM leukemia = system: CCRF-CEM leukemia
HS 578T breast = system: HS 578T breast
BT-549 breast = system: BT-549 breast
PC-3 prostate = system: PC-3 prostate
SW-620 colon = system: SW-620 colon
MDA-MB-231 breast = system: MDA-MB-231 breast
HCT-15 colon = system: HCT-15 colon
MALME-3M melanoma = system: MALME-3M melanoma
HCT-116 colon = system: HCT-116 colon
MOLT-4 leukemia = system: MOLT-4 leukemia
786-0 renal = system: 786-0 renal
A549 NSCLC = system: A549 NSCLC

For `CC(=O)N[C@H](C(=O)N[C@@H](CCCNC(=N)N)C(=O)N[C@@H](CCCCN)C(=O)N[C@@H](CCCNC(=N)N)C(=O)NC(C(=O)N[C@@H](CC(C)C)C(=O)N[C@@H](CCCNC(=N)N)C(=O)N[C@@]1(C)CCC/C=C\CCC[C@@](C)(C(=O)N[C@@H](CCCNC(=N)N)C(=O)N[C@@H](CCC(=O)O)C(=O)N[C@@H](CC(C)C)C(=O)N[C@H](C(=O)N[C@@H](CCC(=O)O)C(N)=O)C(C)C)NC(=O)[C@H](CCC(N)=O)NC(=O)[C@H](CC(C)C)NC(=O)[C@H](CC(C)C)NC1=O)[C@@H](C)O)C(C)C` (stereo partly drawn) (Ac-VRKR[ξThr(3R)]LR[S5]LLQ[S5]RELVE-NH2; staple (Z) 8-12), the GI50 (SF-268 CNS) was 2.1 µM, the TGI (SF-268 CNS) was 8.62 µM and the GI50 (SNB-75 CNS) was 3.8 µM. It also gave a TGI (SNB-75 CNS) of 10.8 µM, a GI50 (ACHN renal) of 6.97 µM and a TGI (ACHN renal) of 14.7 µM. It also gave a GI50 (M14 melanoma) of 4.27 µM, a TGI (M14 melanoma) of 11.5 µM and a GI50 (SNB-19 CNS) of 7.94 µM. For the same compound, the TGI (SNB-19 CNS) was 17.9 µM, the GI50 (OVCAR-4 ovarian) was 9.5 µM and the TGI (OVCAR-4 ovarian) was 20 µM. For the same compound, the GI50 (DU-145 prostate) was 2.68 µM, the TGI (DU-145 prostate) was 9.2 µM and the GI50 (TK-10 renal) was 1.33 µM. The TGI (TK-10 renal) was 4.38 µM, the GI50 (UACC-62 melanoma) was 1.13 µM and the TGI (UACC-62 melanoma) was 2.81 µM. For the same compound, the GI50 (MDA-MB-435) was 1.94 µM, the TGI (MDA-MB-435) was 7.56 µM and the GI50 (HL-60(TB) leukemia) was 7.23 µM. For the same compound, the TGI (HL-60(TB) leukemia) was 19.2 µM, the GI50 (MCF7 breast) was 3.41 µM and the TGI (MCF7 breast) was 11.7 µM. The GI50 (SK-MEL-5 melanoma) was 2.01 µM, the TGI (SK-MEL-5 melanoma) was 8.43 µM and the GI50 (OVCAR-5 ovarian) was 8.96 µM. For the same compound, the TGI (OVCAR-5 ovarian) was 18.1 µM, the GI50 (UO-31 renal) was 9.2 µM and the TGI (UO-31 renal) was 17.5 µM. The GI50 (EKVX NSCLC) was 6.03 µM, the TGI (EKVX NSCLC) was 14.2 µM and the GI50 (NCI-H522 lung) was 5.75 µM. For the same compound, the TGI (NCI-H522 lung) was 16.4 µM, the GI50 (NCI-H23 lung) was 5.26 µM and the TGI (NCI-H23 lung) was 13.3 µM. The GI50 (HT29 colon) was 7.56 µM, the TGI (HT29 colon) was 16.4 µM and the GI50 (SK-MEL-2 melanoma) was 4.73 µM. The TGI (SK-MEL-2 melanoma) was 17.2 µM, the GI50 (CAKI-1 renal) was 3.79 µM and the TGI (CAKI-1 renal) was 10.4 µM. The GI50 (SF-295 CNS) was 4.69 µM, the TGI (SF-295 CNS) was 12.1 µM and the GI50 (U251 CNS) was 2.99 µM. For the same compound, the TGI (U251 CNS) was 10.4 µM, the GI50 (OVCAR-8 ovarian) was 2.14 µM and the TGI (OVCAR-8 ovarian) was 8.32 µM. It also gave a GI50 (SN12C renal) of 3.33 µM, a TGI (SN12C renal) of 10.7 µM and a GI50 (OVCAR-3 ovarian) of 8.16 µM. For the same compound, the TGI (OVCAR-3 ovarian) was 15.7 µM, the GI50 (RPMI-8226 leukemia) was 8.77 µM and the TGI (RPMI-8226 leukemia) was 18.9 µM. The GI50 (HOP-92 NSCLC) was 2.45 µM, the TGI (HOP-92 NSCLC) was 8.89 µM and the GI50 (KM12 colon) was 1.99 µM. For the same compound, the TGI (KM12 colon) was 8.03 µM, the GI50 (SK-MEL-28 melanoma) was 3.93 µM and the TGI (SK-MEL-28 melanoma) was 11.3 µM. For the same compound, the GI50 (SF-539 CNS) was 2.1 µM, the TGI (SF-539 CNS) was 7.54 µM and the GI50 (NCI-H226 lung) was 5.31 µM. For the same compound, the TGI (NCI-H226 lung) was 14.8 µM, the GI50 (NCI/ADR-RES ovarian) was 7.9 µM and the TGI (NCI/ADR-RES ovarian) was 16.7 µM. For the same compound, the GI50 (K-562 leukemia) was 9.12 µM, the TGI (K-562 leukemia) was 19.7 µM and the GI50 (NCI-H460 lung) was 1.76 µM. It also gave a TGI (NCI-H460 lung) of 6.84 µM, a GI50 (RXF 393 renal) of 2.7 µM and a TGI (RXF 393 renal) of 12.1 µM. For the same compound, the GI50 (COLO 205 colon) was 2.41 µM, the TGI (COLO 205 colon) was 9.89 µM and the GI50 (LOX IMVI melanoma) was 8.64 µM. It also gave a TGI (LOX IMVI melanoma) of 18.8 µM, a GI50 (HOP-62 NSCLC) of 3.24 µM and a TGI (HOP-62 NSCLC) of 11.8 µM. For the same compound, the GI50 (A498 renal) was 8.69 µM, the TGI (A498 renal) was 18.4 µM and the GI50 (SK-OV-3 ovarian) was 5.55 µM. For the same compound, the TGI (SK-OV-3 ovarian) was 14.9 µM, the GI50 (HCC-2998 colon) was 7.67 µM and the TGI (HCC-2998 colon) was 18.2 µM. The GI50 (T-47D breast) was 1.05 µM, the TGI (T-47D breast) was 2.68 µM and the GI50 (CCRF-CEM leukemia) was 11.2 µM. For the same compound, the TGI (CCRF-CEM leukemia) was 34.2 µM, the GI50 (HS 578T breast) was 1.48 µM and the TGI (HS 578T breast) was 5.31 µM. For the same compound, the GI50 (BT-549 breast) was 3.45 µM, the TGI (BT-549 breast) was 11.1 µM and the GI50 (PC-3 prostate) was 7.76 µM. The TGI (PC-3 prostate) was 15.3 µM, the GI50 (SW-620 colon) was 8.29 µM and the TGI (SW-620 colon) was 16.2 µM. The GI50 (MDA-MB-231 breast) was 8.24 µM, the TGI (MDA-MB-231 breast) was 17.1 µM and the GI50 (HCT-15 colon) was 6.22 µM. It also gave a TGI (HCT-15 colon) of 14.7 µM, a GI50 (MALME-3M melanoma) of 1.76 µM and a TGI (MALME-3M melanoma) of 7.14 µM. It also gave a GI50 (HCT-116 colon) of 8.87 µM, a TGI (HCT-116 colon) of 17.1 µM and a GI50 (MOLT-4 leukemia) of 9.85 µM. For the same compound, the TGI (MOLT-4 leukemia) was 22.9 µM, the GI50 (786-0 renal) was 4.2 µM and the TGI (786-0 renal) was 12.6 µM. It also gave a GI50 (A549 NSCLC) of 6.42 µM and a TGI (A549 NSCLC) of 14.3 µM.
